The test system of one experiment is PGC-1α gene. The experiment is described as follows: Real time PCR gene expression in mouse myotube: PGC-1α. The format is cell-based. As to conditions: C2C12 myotubes, 10, 30 and 100 μM, 16 hours, corrected with β-actin, FIG. 4A. The protocol:
(§1) Mouse myoblasts were purchased from the Korean Cell Line Bank (KCLB), and base sequences of primers for β-actin, SIRT-1, PGC-1α, NRF-1 and PPAR-δ genes were as follows:
(§2) 1×10^7 C2C12 (mouse myoblasts) differentiated into myotubes using 2% horse serum […]. The mouse myotube was treated with myricetin by concentration and cultured for 16 hours, RNA was extracted from the myotube using TRizol, and then cDNA was synthesized through reverse transcription PCR (RT-PCR).
(§3) Real time PCR was performed using β-actin as a control and the primers for respective genes (95° C. for 3 minutes, <95° C. for 10 seconds, 60° C. for 10 seconds, 72° C. for 30 seconds>−39 cycles, 95° C. for 10 seconds, 65° C. for 5 seconds). The PGC-1α, NRF-1, PPAR-δ, and SIRT-1 were corrected with the β-actin, and the resulting value was obtained.
(In general: Quantitative PCR measures a nucleic acid by following its amplification.)

For a further experiment, the system named is NRF-1 gene. Kind of experiment: Real time PCR gene expression in mouse myotube: NRF-1. The format is cell-based. Particulars: C2C12 myotubes, 10, 30 and 100 μM, 16 hours, corrected with β-actin, FIG. 4B. The protocol: as §1, §2, §3
The next experiment deals with ICR-series mice. Kind of experiment: Grip strength test (maximum muscle strength). The format is in vivo, mouse. Particulars: 50 mg/kg oral daily for two weeks, vs negative control, p<0.005 / p<0.00005, FIGS. 2A and 2B. As for the experimental part: To measure an effect of myricetin on enhancing endurance exercise capacity of a mouse, ten 8-week-old ICR-series mice having a body weight of 30±5 g were used. As described in Example 1, the experimental animals were divided into two groups. The first group was determined as a negative control, and to the second group, myricetin was orally administered daily at a concentration of 50 mg/kg for two weeks. To measure a change in the maximum strength of a muscle due to myricetin, a grip strength test (Bioseb, France) was performed on the animals in the control group and the myricetin-administered group. Maximum grip strengths of the front paws and rear paws were measured by pulling a tail of the mouse backward while the mouse grabbed a grip strength tester. The grip strength was measured three times, and an average value was used.

For experiment [1], the system named is ICR mice. Kind of experiment: Rotarod test (sensorimotor function). The format is in vivo, mouse. Particulars: 50 mg/kg oral daily for 2 weeks, 4 to 40 rpm, vs negative control, p<0.005, FIG. 3. As for the experimental part: To confirm an effect of myricetin on a sensorimotor function of a mouse, 8-week-old ICR mice were purchased from KOATECH, precultured for 1 week, and divided into two groups, each group having 5 mice. As described in Example 1, the experimental animals were divided into two groups, and then the first group was determined as a negative control, and to the second group, myricetin was orally administered daily at a concentration of 50 mg/kg using a 1 ml syringe for 2 weeks.
To measure an effect of myricetin on the sensorimotor function, a rotarod test (Panlab&Harvard, Spain) was performed on the mice in the control group and the myricetin-administered group. The rotarod test was performed to measure motor coordination (exercise adaptation) and a sense of balance of the animal (Michel Pratte et al., Behavioural brain research 216:313-320, 2011; Medina R. et al., FEBS Lett. 180(1): 77-80, 1985).
A tail of the mouse was put on a rotarod, and a speed of the rotarod was increased from 4 to 40 rpm within 5 minutes by an increase of 4 rpm at 30-second intervals. The time during which the mouse stayed on the rotarod was measured. The experiment was repeated five times, and the time during which the mouse stayed the longest on the rotarod was used as a result value.
A general note: The rotarod test checks motor coordination on a turning rod.

The next experiment relates to PPAR-δ gene. The experiment is described as follows: Real time PCR gene expression in mouse myotube: PPAR-δ. The format is cell-based. As to conditions: C2C12 myotubes, 10, 30 and 100 μM, 16 hours, corrected with β-actin, FIG. 4C. As for the experimental part:
as §1, §2, §3

A short description of experiment [2]: Daily food intake of SD rats (action metabolism meter). The format is in vivo, rat. As to conditions: 50 mg/kg for 5 days, FIG. 5B. As for the experimental part: 7-week-old SD rats were purchased from KOATECH, precultured for 1 week, and randomly divided into two groups, each group having 5 rats. First, 50 mg/kg of myricetin was administered into the test group, and phosphate buffered saline was administered into the control group for 5 days. The investigation of food intake was performed by automatically measuring the daily food intake of the phosphate buffered saline-administered mouse and the myricetin-administered mouse using an action metabolism meter (Panlab&Harvard, Spain). The average food intake was determined as an average food intake of each of the five rats in one group.

The test system of experiment [3] is ICR mice. The experiment is described as follows: Treadmill run to exhaustion (endurance exercise capacity). The class given is in vivo, mouse. As to conditions: 50 mg/kg oral daily for two weeks, vs phosphate buffered saline control, p<0.0005, FIG. 1. As for the experimental part:
Ten 8-week-old ICR mice were purchased from KOATECH, precultured for 1 week, and then divided into two groups, each group having five mice. The first group was set up as a negative control by administering phosphate buffered saline, and to the second group, myricetin was orally administered daily at a concentration of 50 mg/kg for two weeks. To measure a change in endurance exercise capacity due to myricetin, the animals in the negative control and the myricetin-administered group were run on a treadmill (Panlab&Harvard, Spain). An exercise performance protocol was configured to make the mice run until exhaustion at 25 cm/sec for 20 minutes, 30 cm/sec for 20 minutes, 33 cm/sec for 20 minutes, 36 cm/sec for 20 minutes and 36 cm/sec for 15 minutes with a gradient of 5°, and 30 cm/sec for 15 minutes and 41 cm/sec with a gradient of 10°. To adapt the mice to running on the treadmill, the day before the experiment, they were run at 27 cm/sec for 10 minutes with a gradient of 5°. The mice were not fed for two hours before the running on the treadmill on the day of the experiment, and then the maximum exercise capacity of the experimental animals was measured after the running on the treadmill. […]

Experiment [4] in a line: Change in body weight of SD rats. The format is in vivo, rat. As to conditions: 50 mg/kg for 5 days, 225 g before administration, control group 285 g, FIG. 5A. The protocol:
7-week-old SD rats were purchased from KOATECH, precultured for 1 week, and randomly divided into two groups, each group having 5 rats. First, 50 mg/kg of myricetin was administered into the test group, and phosphate buffered saline was administered into the control group for 5 days. A change in body weight was measured using an electric measure (CAS, China). Before administration, the body weights of the rats in each group were the same as 225 g on average, but after the end of the experiment, the body weights of the rats in the control group were 285 g on average, and the body weights of the rats in the myricetin-administered group were 275 g on average (FIG. 5A).

The subject of a further experiment is SIRT-1 gene. Kind of experiment: Real time PCR gene expression in mouse myotube: SIRT-1. Particulars: C2C12 myotubes, 10, 30 and 100 μM, 16 hours, corrected with β-actin, FIG. 4D. The class given is cell-based. The protocol: as §1, §2, §3

Here are results for one compound from patent publication US9675580B2, “Method of treatment for enhancing exercise performance” (priority 2012, dated 2017).

Regarding `O=c1c(O)c(-c2cc(O)c(O)c(O)c2)oc2cc(O)cc(O)c12` [myricetin, 3,5,7-trihydroxy-2-(3,4,5-trihydroxyphenyl)-4-chromenone], the “expression of PGC-1α compared to the control group” value with PGC-1α gene was “increased two to three times”. The “expression of NRF-1 compared to the control group” value with NRF-1 gene is on record as “increased two to three times”. In addition, the “maximum grip strength of front paws and rear paws (maximum muscle strength)” value in the experiment on ICR-series mice is “increased”. Moreover, the “time during which the mouse stayed on the rotarod” value in the experiment with ICR mice [1] is reported as “longer”. Moreover, the “expression of PPAR-δ compared to the control group” value in the experiment on PPAR-δ gene is on record as “increased two to three times”. Moreover, the “average daily food intake vs phosphate buffered saline-administered group” value in experiment [2] is on record as “smaller”. Besides, the “time run on the treadmill until exhaustion (maximum exercise capacity)” value in the experiment on ICR mice [3] is given as “longer”. In addition, the “body weight on average after the end of the experiment” value in [4] came to 275 g. Also, the “expression of SIRT-1 compared to the control group” value in the experiment on SIRT-1 gene was “increased two to three times”.
